What was measured:
[1] = target: Serine/threonine-protein kinase tousled-like 2 (Homo sapiens) (UniProt Q86UE8); settings: at 10 µM
[2] = target: Tyrosine-protein kinase JAK2 (Homo sapiens, UniProt O60674); experiment: Selectivity interaction (NanoBRET assay (HEK293T cells)) EUB0001558a JAK2; type: cell-based, HEK-293T
[3] = target: Receptor tyrosine-protein kinase erbB-2 (Homo sapiens, UniProt P04626); experiment: Selectivity interaction (ProQinase) EUB0000171b ERBB2
[4] = target: T1, Tyrosine-protein kinase Mer (Homo sapiens) (UniProt Q12866); experiment: Selectivity interaction (ProQinase) EUB0000171b MERTK
T1 sequence (whole entry): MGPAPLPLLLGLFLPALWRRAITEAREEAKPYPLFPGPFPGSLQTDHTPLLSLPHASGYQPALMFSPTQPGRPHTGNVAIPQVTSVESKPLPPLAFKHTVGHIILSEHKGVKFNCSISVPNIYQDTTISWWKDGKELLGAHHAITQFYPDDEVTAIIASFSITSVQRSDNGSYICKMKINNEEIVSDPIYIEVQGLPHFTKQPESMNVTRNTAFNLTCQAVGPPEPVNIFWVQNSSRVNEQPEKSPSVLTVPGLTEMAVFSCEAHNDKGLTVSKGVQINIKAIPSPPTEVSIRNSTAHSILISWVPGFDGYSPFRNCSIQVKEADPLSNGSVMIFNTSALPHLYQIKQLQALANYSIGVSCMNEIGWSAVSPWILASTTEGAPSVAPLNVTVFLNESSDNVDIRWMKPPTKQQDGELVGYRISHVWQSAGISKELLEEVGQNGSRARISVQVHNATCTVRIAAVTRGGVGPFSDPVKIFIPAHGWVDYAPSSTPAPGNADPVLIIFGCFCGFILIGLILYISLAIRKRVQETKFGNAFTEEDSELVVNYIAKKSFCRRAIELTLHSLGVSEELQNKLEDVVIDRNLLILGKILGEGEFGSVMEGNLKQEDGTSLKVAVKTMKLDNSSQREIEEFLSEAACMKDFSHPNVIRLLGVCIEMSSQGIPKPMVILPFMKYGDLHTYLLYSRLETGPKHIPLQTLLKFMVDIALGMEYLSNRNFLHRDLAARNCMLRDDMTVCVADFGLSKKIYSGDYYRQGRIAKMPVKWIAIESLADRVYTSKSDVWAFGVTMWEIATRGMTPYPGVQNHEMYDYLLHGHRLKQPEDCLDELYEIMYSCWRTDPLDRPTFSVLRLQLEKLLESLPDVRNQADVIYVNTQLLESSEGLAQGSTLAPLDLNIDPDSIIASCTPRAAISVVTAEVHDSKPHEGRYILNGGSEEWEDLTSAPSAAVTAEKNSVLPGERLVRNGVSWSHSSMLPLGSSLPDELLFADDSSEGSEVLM

[5] = target: Ephrin type-A receptor 5 (Homo sapiens) (UniProt P54756); experiment: Selectivity interaction (Kinase panel (DSF assay)) EUB0001559a EPHA5
[6] = target: Muscarinic acetylcholine receptor M5 (Homo sapiens) (UniProt P08912); experiment: Selectivity interaction (GPCR panel (PDSP screen)) EUB0001079a CHRM5; settings: at 10 µM
[7] = target: T2, Serine/threonine-protein kinase BRSK1 (Homo sapiens) (UniProt Q8TDC3); experiment: Selectivity interaction (Kinase panel (Invitrogen)) EUB0000639a BRSK1; settings: at 200 nM
T2 sequence (whole entry): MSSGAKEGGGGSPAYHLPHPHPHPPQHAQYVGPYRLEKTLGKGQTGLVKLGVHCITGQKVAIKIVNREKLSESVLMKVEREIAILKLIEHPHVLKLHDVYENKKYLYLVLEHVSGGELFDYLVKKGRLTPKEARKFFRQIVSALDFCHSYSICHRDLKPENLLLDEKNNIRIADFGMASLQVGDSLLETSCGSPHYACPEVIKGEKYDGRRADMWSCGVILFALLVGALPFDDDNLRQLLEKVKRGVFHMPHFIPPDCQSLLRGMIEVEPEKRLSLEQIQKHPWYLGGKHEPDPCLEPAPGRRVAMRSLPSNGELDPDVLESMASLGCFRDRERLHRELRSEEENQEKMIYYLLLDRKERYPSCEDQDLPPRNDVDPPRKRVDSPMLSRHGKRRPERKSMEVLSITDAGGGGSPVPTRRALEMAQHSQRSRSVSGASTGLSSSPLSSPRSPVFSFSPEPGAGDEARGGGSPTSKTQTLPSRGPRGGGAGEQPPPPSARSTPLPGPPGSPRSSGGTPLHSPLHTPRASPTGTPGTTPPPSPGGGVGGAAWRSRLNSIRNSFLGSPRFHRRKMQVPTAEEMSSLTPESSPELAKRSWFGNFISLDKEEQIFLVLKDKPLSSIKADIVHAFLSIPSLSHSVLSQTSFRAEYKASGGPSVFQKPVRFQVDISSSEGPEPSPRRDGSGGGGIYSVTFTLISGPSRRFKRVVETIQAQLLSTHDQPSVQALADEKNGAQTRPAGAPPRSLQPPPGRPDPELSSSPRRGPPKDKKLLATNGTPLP

[8] = target: Kappa-type opioid receptor (Homo sapiens, UniProt P41145); experiment: Selectivity interaction (Panel of kinases, GPCRs, ion channels and transporters (enzymatic assay)) EUB0000223bCl OPRK1
[9] = target: cAMP-dependent protein kinase catalytic subunit beta (Homo sapiens) (UniProt P22694); experiment: Selectivity interaction (KinomeScan (DiscoverX)) EUB0001049a PRKACB; settings: at 1 µM
[10] = target: LIM domain kinase 2 (Homo sapiens) (UniProt P53671); experiment: Selectivity interaction (Ambit KINOMEscan and KiNATiv profiling in Jurkat cells) EUB0000090b LIMK2; type: cell-based; settings: at 1 µM
LIM domain kinase 2 (Homo sapiens), sequence (P53671 whole entry, looked up, the tested form may be a part): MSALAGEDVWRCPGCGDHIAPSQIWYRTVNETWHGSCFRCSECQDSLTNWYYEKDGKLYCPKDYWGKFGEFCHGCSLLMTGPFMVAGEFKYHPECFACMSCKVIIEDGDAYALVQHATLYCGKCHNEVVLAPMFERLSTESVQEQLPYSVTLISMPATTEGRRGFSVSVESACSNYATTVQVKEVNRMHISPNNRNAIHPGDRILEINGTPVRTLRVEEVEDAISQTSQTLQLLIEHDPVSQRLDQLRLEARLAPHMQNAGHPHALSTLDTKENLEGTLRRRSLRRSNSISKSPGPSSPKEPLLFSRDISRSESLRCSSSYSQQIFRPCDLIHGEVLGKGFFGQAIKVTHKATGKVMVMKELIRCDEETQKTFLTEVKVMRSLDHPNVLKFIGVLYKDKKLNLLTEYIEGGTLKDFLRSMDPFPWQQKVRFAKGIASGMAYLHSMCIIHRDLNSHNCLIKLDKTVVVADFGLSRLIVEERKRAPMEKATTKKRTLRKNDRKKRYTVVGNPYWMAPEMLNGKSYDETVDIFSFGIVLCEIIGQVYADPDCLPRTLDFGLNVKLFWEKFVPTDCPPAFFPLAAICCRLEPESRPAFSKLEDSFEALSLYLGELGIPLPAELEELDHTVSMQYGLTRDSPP

Receptor tyrosine-protein kinase erbB-2, sequence (P04626 whole entry): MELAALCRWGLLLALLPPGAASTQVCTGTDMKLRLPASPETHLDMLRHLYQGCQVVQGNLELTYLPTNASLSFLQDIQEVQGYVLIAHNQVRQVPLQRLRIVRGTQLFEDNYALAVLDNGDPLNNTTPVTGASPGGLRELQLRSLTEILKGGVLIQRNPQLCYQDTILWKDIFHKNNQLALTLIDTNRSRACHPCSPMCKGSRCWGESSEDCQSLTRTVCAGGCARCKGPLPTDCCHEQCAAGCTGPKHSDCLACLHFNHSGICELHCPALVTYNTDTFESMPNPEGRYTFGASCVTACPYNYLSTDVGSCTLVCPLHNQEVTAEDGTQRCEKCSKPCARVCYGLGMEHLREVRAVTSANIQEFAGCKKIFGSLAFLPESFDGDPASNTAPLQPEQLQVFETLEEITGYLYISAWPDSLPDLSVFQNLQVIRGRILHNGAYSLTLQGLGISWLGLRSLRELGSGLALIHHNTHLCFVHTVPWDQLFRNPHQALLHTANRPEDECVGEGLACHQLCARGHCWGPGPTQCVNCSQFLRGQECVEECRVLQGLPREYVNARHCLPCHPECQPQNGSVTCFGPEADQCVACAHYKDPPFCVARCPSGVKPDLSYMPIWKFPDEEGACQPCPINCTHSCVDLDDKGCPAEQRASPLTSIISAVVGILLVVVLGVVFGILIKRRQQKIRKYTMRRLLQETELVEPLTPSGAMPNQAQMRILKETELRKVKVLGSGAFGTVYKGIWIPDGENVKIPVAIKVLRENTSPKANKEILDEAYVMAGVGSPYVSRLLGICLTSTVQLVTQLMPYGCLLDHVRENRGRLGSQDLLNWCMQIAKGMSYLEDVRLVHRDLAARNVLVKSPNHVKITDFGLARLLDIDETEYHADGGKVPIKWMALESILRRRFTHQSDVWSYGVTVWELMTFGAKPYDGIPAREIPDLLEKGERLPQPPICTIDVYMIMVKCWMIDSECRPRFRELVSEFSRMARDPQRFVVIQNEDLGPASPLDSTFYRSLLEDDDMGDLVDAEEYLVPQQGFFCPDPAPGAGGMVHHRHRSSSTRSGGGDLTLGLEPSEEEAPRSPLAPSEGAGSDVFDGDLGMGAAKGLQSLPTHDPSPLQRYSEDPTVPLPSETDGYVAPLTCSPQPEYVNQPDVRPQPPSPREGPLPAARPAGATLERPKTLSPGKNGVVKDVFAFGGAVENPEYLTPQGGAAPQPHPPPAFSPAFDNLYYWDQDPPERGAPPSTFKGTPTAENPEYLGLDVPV
Ephrin type-A receptor 5 (Homo sapiens), sequence (P54756 whole entry): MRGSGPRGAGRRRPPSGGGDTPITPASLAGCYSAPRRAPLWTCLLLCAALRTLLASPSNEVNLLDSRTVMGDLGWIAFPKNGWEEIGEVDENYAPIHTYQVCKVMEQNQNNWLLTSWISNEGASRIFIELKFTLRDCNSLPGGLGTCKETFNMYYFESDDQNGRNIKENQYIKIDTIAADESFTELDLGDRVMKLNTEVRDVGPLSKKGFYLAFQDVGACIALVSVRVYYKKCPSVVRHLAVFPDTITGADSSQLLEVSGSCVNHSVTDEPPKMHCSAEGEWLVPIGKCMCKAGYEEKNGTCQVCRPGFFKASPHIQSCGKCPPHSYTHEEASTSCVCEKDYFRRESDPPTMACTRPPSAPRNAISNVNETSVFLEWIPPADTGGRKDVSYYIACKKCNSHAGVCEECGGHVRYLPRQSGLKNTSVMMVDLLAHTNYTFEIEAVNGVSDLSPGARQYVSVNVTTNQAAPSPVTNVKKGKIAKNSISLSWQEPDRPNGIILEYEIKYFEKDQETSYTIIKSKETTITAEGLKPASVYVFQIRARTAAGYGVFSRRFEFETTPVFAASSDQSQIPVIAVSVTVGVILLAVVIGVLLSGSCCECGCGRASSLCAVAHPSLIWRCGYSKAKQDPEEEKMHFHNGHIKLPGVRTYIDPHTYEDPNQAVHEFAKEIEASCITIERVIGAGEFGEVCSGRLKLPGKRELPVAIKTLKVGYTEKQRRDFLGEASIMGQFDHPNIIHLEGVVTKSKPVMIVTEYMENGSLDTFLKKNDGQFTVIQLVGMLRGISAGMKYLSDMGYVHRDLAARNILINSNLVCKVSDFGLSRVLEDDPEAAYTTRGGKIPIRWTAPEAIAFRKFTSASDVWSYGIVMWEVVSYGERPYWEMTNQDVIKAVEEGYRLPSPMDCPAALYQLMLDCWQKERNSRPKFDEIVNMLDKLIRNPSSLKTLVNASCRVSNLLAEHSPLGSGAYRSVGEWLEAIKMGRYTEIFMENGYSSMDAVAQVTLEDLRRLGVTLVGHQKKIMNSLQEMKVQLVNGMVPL
Kappa-type opioid receptor, sequence (P41145 whole entry): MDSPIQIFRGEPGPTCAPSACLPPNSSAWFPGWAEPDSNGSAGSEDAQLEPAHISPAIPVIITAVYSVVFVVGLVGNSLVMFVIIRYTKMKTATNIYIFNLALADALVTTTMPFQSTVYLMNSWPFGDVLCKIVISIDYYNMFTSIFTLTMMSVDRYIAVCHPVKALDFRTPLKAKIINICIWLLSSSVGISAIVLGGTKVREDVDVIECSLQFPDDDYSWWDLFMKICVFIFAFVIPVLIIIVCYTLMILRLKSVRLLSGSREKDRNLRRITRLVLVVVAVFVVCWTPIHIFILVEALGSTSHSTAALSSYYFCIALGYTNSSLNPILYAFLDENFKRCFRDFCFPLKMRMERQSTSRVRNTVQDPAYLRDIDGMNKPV
Tyrosine-protein kinase JAK2, sequence (O60674 whole entry): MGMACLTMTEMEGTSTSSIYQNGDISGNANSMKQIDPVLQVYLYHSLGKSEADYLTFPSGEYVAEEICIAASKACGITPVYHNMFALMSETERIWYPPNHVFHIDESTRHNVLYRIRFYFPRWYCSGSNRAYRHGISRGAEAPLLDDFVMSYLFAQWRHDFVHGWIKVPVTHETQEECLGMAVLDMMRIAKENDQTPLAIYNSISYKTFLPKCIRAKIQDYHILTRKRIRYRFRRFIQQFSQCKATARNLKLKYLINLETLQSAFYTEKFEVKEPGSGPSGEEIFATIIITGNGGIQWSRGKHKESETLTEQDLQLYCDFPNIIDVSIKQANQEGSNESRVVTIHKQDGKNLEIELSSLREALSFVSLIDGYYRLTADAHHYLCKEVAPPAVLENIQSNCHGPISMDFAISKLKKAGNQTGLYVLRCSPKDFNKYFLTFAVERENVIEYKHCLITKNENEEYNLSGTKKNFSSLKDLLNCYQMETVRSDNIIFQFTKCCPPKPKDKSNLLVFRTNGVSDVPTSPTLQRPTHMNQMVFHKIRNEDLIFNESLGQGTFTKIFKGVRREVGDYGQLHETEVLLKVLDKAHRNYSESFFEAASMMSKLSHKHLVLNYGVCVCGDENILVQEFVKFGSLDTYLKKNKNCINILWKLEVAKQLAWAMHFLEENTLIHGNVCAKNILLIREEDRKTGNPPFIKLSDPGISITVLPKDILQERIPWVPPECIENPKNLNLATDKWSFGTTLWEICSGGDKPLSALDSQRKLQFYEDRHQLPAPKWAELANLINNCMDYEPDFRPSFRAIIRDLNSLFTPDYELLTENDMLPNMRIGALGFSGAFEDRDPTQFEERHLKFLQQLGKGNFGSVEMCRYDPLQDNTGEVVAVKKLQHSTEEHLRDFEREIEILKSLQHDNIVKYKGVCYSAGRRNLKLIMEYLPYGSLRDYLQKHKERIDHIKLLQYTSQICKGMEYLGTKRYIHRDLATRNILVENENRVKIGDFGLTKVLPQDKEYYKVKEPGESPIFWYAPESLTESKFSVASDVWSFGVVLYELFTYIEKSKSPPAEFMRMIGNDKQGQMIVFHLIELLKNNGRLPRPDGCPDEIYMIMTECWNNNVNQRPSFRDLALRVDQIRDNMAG
Muscarinic acetylcholine receptor M5 (Homo sapiens), sequence (P08912 whole entry): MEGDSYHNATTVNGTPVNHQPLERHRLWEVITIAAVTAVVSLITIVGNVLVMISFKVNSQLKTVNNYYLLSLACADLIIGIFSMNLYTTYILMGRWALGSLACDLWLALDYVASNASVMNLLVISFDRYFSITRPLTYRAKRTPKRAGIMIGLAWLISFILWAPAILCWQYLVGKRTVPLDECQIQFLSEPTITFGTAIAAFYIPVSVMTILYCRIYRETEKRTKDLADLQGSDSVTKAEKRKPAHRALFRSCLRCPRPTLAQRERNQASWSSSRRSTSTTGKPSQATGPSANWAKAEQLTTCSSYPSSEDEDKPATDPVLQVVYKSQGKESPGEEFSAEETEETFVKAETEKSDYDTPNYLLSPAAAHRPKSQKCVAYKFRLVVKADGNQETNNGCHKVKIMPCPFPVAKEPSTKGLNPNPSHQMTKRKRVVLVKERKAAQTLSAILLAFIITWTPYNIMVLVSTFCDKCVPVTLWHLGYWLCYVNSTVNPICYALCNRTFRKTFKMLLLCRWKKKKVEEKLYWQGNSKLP

In the case of `CCN(CC)CCCCNc1ncc2cc(-c3cc(OC)cc(OC)c3)c(NC(=O)NC(C)(C)C)nc2n1`, the % of control [1] is reported as 100%.
`CC(C)(O)[C@H](F)CN1Cc2cc(NC(=O)c3cnn4cccnc34)c(N3CCOCC3)cc2C1=O` gave an EC50 [2] greater than 50 µM.
Work on `C=CC(=O)Nc1cccc(C(=O)Nc2ccc(Nc3cc(-c4[nH]c(SC)nc4C)ccn3)cc2)c1` yielded a % of control ([3]; at 1 µM) of 92%, a % of control ([3]; at 5 µM) of 94% and a % of control ([4]; at 1 µM) of 76%. The % of control ([4]; at 5 µM) was 41%.
`CN(C(=O)c1cnn2cccnc12)c1cc2c(cc1N1CCOCC1)C(=O)N(C[C@@H](F)C(C)(C)O)C2` gave a dTM [5] of -0.3 K.
With `Nc1cnc(N2CCc3cc(S(=O)(=O)Nc4c(F)cc(Cl)cc4F)cc(N4CCCC4=O)c32)nc1` [TP-020n] the % of inhibition [6] was 1.45%.
`CC[C@@H]1[C@H](F)C(=O)N[C@@H]1COc1nccc2cc(C(N)=O)c(OC)cc12` [ZIMLOVISERTIB] gave a % of inhibition [7] of 23.6%.
In the case of `COc1cc(C(=O)N2CC[C@@H](O)[C@@H](N)C2)cc2nc(-c3cc4ccccc4n3CC3CC3)n(C)c12`, the pXC50 [8] is reported as less than 4 M.
With `COc1cc(Nc2nc(C)cc(-c3cnn4nc(OC)ccc34)n2)cc(C(F)(F)F)c1` the % of control [9] was 100%.
For `CN(C)C/C=C/C(=O)Nc1ccc(C(=O)N2CCCC(Nc3ncc(Cl)c(-c4c[nH]c5ccccc45)n3)C2)cc1` (configuration not stated), the % of control [10] was 95%.
